From paper PMC12606464, “Investigating NFE2L1 activators for targeted protein aggregate clearance: a follow-up study” (RSC Medicinal Chemistry, 2025)

Test system: Q35-YFP foci
Assay: Q35-YFP aggregation in C. elegans strain AM140
Format: in vivo, Caenorhabditis elegans
Description: Furthermore, we explored the role of RUN-89 in preventing huntingtin protein aggregation in C. elegans. For this AM140 strain, stably expressing aggregation-prone 35-glutamine long repeats marked with yellow fluorescence protein (Q35-YFP) were used.[82,83] A six-day treatment with 50 μM RUN-89 or a vehicle control was conducted, followed by microscopy analysis. […] These findings highlight the substantial impact of RUN-89 on foci formation or persistence, further supporting its role in suppressing pathological clustering in protein aggregation diseases or reducing stress-response assemblies.
Fig. 5 RUN-89 prevents protein aggregation and increases stress resistance in C. elegans. (A) The AM140 strain expressing aggregation-prone Q35-YFP was treated with 50 μM RUN-89 or the vehicle for 6 days, followed by microscopy analysis. Overall, 959 Q35-YFP foci (DMSO = 517; RUN-89 = 442) were identified in 102 animals (DMSO: N = 3 populations, n = 55 animals in total; RUN-89: N = 3 populations, n = 47 animals in total). The two dashed horizontal lines indicate the interquartile range, and the thick horizontal line represents the median. The Kolmogorov–Smirnov test verified a significant reduction of surface and integrated optical density of foci after RUN-89 treatment. (B) Representative images of two animals per treatment condition. Images were taken on the same day, using identical settings for the instruments used. (C) Protective effect of RUN-89 against juglone and paraquat-induced stress. A synchronized population of N2 wild-type worms was exposed to 50 μM RUN-89 for 24 hours to protect against acute oxidative stress triggered by 180 μM juglone and 200 mM paraquat. The mortality was monitored hourly over a 12 hour period. […] Results were analyzed using the Kaplan–Meier method and are presented as survival percentages with standard errors. […]
Transgenic GR2183 worms carrying the reporter gene (rpt -3p::GFP) were exposed to RUN-89 for 24 hours and for AM140 (rmIs132 [unc-54p::Q35::YFP]) to aged 6 days under treatment to establish protein aggregation model. The worms were then anesthetized with […] sodium azide and placed on glass slides with 5% agar for fluorescence microscope observation. The expression of the rpt-3p::GFP reporter in worms was directly related to the intensity of green fluorescence. Images were captured using a Zeiss Axioskop 2 Plus fluorescence microscope and a Zeiss Axio Observer A1 microscope designed for epifluorescence. Image analysis was performed to assess variations in aggregation (both the count and volume of aggregates) and fluorescence signal intensity using ImageJ software (https://imagej.nih.gov/ij/). […]

[1] = AM140, 50 μM, six-day treatment, versus DMSO

## COc1ccc(/C=C2\CC(NC(=O)C3CCCC3)C/C(=C\c3ccc(OC)c(OC)c3)C2=O)cc1OC (stereo not shown) [RUN-89]
[1]
  Q35-YFP foci relative fluorescence density: significant decrease
  Q35-YFP foci surface area: significant decrease
C. elegans, Fig. 5A, DMSO median 1.00
  Q35-YFP intensity, median: 0.51 fold change to DMSO median
C. elegans, Fig. 5A, DMSO median 20
  Q35-YFP foci surface, median: 17 voxels
